Experimental data reported in publication PMC11079024, “Identification of a family of species-selective complex I inhibitors as potential anthelmintics” (Nature Communications, 2024).
Where two headings read alike, the source gives them in different places.

Tests used:
[1] = biological target: B. taurus (heart) complex I (Bos taurus, UniProt P03887+P17694+P42026); experiment: biochemical; type: biochemical; conditions: for IC50: B. taurus heart mitochondria, read-out: B. taurus Complex I IC50; for activity at 0.0001 µM / activity at 0.0005 µM / activity at 0.001 µM / activity at 0.0025 µM / activity at 0.005 µM / activity at 0.013 µM / activity at 0.025 µM / activity at 0.063 µM / activity at 0.125 µM / activity at 0.313 µM / activity at 0.625 µM / activity at 1.5 µM / activity at 3 µM / activity at 15 µM / activity at 37.5 µM / activity at 75 µM: read-out: B. taurus mitochondrial complex I activity; for Log IC50 B. taurus complex I: log10 of IC50 in µM, B. taurus mitochondria
Sequence of B. taurus (heart) complex I (P03887 whole entry): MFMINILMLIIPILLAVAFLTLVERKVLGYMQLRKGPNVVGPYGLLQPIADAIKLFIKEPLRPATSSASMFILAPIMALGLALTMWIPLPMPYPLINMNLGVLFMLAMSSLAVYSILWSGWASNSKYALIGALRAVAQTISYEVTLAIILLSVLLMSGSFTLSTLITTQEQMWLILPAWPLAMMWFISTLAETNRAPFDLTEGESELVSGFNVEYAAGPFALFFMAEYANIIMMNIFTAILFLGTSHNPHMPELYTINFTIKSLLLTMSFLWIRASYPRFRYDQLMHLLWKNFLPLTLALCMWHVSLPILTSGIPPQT
Sequence of B. taurus (heart) complex I (P17694 34-463): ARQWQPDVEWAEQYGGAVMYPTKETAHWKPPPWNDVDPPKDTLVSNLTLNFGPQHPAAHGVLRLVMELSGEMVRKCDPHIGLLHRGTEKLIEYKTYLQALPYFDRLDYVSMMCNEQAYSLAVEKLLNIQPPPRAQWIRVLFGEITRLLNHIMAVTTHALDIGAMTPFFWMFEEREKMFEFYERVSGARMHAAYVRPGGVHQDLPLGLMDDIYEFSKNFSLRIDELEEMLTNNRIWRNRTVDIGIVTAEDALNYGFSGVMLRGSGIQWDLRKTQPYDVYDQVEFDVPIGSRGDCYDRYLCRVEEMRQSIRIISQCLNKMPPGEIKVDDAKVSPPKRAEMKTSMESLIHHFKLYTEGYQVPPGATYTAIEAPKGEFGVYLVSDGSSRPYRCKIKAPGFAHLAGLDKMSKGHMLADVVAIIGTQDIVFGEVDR
Sequence of B. taurus (heart) complex I (P42026 38-216): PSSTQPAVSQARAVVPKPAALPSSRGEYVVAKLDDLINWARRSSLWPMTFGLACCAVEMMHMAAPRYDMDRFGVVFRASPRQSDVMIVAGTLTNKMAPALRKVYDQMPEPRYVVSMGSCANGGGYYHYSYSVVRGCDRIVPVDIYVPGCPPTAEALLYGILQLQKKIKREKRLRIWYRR
How it was run: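 Complex I activity followed as DCIP reduction (600 nm, 30 s reads, 15 min) with 80 μM NADH and 60 μM decylubiquinone in 25 mM KPi pH 7.5 containing 2 μM antimycin A and 2 mM KCN. Freeze-thawed mouse or bovine heart mitochondria at 0.2 mg/mL; initial-rate percent of solvent control, single-point 100 μM or dose-response.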

[2] = biological target: C. elegans (N2) complex I (NADH:ubiquinone oxidoreductase) (Caenorhabditis elegans, UniProt P24887+Q93873+Q94360); experiment: biochemical; type: biochemical; conditions: for activity at 0.0001 µM / activity at 0.0005 µM / activity at 0.001 µM / activity at 0.0025 µM / activity at 0.005 µM / activity at 0.013 µM / activity at 0.025 µM / activity at 0.063 µM / activity at 0.125 µM / activity at 0.313 µM / activity at 0.625 µM / activity at 1.5 µM / activity at 3 µM / activity at 15 µM / activity at 37.5 µM / activity at 75 µM: read-out: C. elegans mitochondrial complex I activity; for Log IC50 C. elegans complex I: log10 of IC50 in µM, C. elegans mitochondria
Sequence of C. elegans (N2) complex I (NADH:ubiquinone oxidoreductase) (Q94360 17-199): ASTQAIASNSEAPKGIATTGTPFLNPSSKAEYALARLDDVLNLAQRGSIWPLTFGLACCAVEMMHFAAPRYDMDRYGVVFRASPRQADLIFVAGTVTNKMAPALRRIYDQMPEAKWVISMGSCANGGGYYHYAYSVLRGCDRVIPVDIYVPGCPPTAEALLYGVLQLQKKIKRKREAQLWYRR
Sequence of C. elegans (N2) complex I (NADH:ubiquinone oxidoreductase) (P24887 whole entry): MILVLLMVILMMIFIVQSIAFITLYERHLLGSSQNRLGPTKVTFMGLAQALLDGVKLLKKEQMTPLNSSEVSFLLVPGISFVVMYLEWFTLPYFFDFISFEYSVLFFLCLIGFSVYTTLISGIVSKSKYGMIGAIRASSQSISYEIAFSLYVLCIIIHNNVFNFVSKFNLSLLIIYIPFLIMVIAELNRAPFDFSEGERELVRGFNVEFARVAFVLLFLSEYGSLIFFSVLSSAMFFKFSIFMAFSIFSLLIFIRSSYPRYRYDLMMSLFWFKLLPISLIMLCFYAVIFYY
Sequence of C. elegans (N2) complex I (NADH:ubiquinone oxidoreductase) (Q93873 31-482): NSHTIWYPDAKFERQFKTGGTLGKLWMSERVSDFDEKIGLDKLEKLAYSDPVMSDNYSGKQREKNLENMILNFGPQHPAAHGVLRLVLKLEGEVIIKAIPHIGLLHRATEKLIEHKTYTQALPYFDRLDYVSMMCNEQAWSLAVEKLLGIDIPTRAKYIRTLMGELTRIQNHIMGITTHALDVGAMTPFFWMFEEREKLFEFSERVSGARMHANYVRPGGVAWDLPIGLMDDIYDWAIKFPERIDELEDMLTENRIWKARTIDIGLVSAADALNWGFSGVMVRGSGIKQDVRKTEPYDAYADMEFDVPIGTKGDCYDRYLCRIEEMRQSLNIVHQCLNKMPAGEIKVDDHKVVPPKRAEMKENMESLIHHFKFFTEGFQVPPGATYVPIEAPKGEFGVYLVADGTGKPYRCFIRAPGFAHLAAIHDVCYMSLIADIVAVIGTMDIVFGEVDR
How it was run: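 Mitochondria from liquid-cultured adults were freeze-thawed thrice before the 15-min DCIP-coupled NADH oxidation read.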

[3] = estimated from fitted dose-response curves
[4] = in vitro complex I dose response on C. elegans mitochondria, average of at least two biological replicates, fit in R (DRC), read-out: IC50 C. elegans complex I
[5] = wild-type (N2) mitochondria, read-out: C. elegans Complex I IC50
[6] = wild-type C. elegans mitochondria, estimated from fitted dose-response curves, read-out: C. elegans Complex I IC50

| Structure (SMILES) | IC50 [1, 3] | activity at 0.0001 µM [1] | activity at 0.0005 µM [1] | activity at 0.001 µM [1] | activity at 0.0025 µM [1] | activity at 0.005 µM [1] | activity at 0.013 µM [1] | activity at 0.025 µM [1] | activity at 0.063 µM [1] | activity at 0.125 µM [1] | activity at 0.313 µM [1] | activity at 0.625 µM [1] | activity at 1.5 µM [1] | activity at 3 µM [1] | activity at 15 µM [1] | activity at 37.5 µM [1] | Log IC50 B. taurus complex I [1] | IC50 [2, 4] | Log IC50 C. elegans complex I [2] | IC50 [2, 6] | further results |
| --- | --- | --- | --- | --- | --- | --- | --- | --- | --- | --- | --- | --- | --- | --- | --- | --- | --- | --- | --- | --- | --- |
| Clc1ccc(Cn2cnc3ccccc32)c(Cl)c1 [Compound 6750659] | 2.6 µM | 93.1% | 93.8% | 91.7% | 100% | 91.7% | 94.7% | 92.7% | 89.8% | 83.5% | 77.1% | 78.3% | 60.6% | 42.8% | 8.04% | 1.6% | 0.41 µM | 0.45 µM | -0.35 µM | 0.45 µM | activity at 75 µM [1]: 1.94%; activity at 0.0001 µM [2]: 89.4%; activity at 0.0005 µM [2]: 104%; activity at 0.001 µM [2]: 101%; activity at 0.0025 µM [2]: 110%; activity at 0.005 µM [2]: 103%; activity at 0.013 µM [2]: 98.1%; activity at 0.025 µM [2]: 98.4%; activity at 0.063 µM [2]: 84.8%; activity at 0.125 µM [2]: 79.5%; activity at 0.313 µM [2]: 62.1%; activity at 0.625 µM [2]: 45.6%; activity at 1.5 µM [2]: 24.9%; activity at 3 µM [2]: 16.1%; activity at 15 µM [2]: 4.66%; activity at 37.5 µM [2]: 3.82%; activity at 75 µM [2]: 5.12%; IC50 [2, 5]: 0.45 µM |
| Nc1nc2ccccc2n1Cc1ccc(Br)cc1 [Compound 7313068] | 1.31 µM |  |  |  |  |  |  |  |  |  |  |  |  |  |  |  | 0.12 µM | 0.34 µM | -0.47 µM | 0.34 µM | IC50 [2, 5]: 0.34 µM |
| Cc1ccccc1OCCCn1c(C)nc2ccccc21 [Compound 7916923] | 6.67 µM | 98.7% | 101% | 103% | 101% | 107% | 99.6% | 102% | 104% | 90.7% | 96.6% | 92.7% | 79.4% | 70.6% | 24.7% | 6.64% | 0.82 µM | 1.17 µM | 0.07 µM | 1.17 µM | activity at 75 µM [1]: 2.1%; activity at 0.0001 µM [2]: 94.5%; activity at 0.0005 µM [2]: 93.6%; activity at 0.001 µM [2]: 94.8%; activity at 0.0025 µM [2]: 99.1%; activity at 0.005 µM [2]: 96.8%; activity at 0.013 µM [2]: 102%; activity at 0.025 µM [2]: 94.3%; activity at 0.063 µM [2]: 89.3%; activity at 0.125 µM [2]: 86.3%; activity at 0.313 µM [2]: 78.5%; activity at 0.625 µM [2]: 65.6%; activity at 1.5 µM [2]: 42.6%; activity at 3 µM [2]: 27.6%; activity at 15 µM [2]: 7.28%; activity at 37.5 µM [2]: 4.39%; activity at 75 µM [2]: 4.47% |
| Cc1nc2ccccc2n1Cc1ccc(Cl)c(Cl)c1 [Compound 5655567] | 1.17 µM | 91.2% | 90.2% | 95.5% | 94.9% | 95.5% | 85.5% | 82.4% | 79.8% | 78.8% | 62.7% | 60.2% | 41.5% | 23.2% | 1.19% | 0.14% | 0.07 µM | 0.47 µM | -0.33 µM | 0.47 µM | activity at 75 µM [1]: 0.62%; activity at 0.0001 µM [2]: 86.1%; activity at 0.0005 µM [2]: 92.1%; activity at 0.001 µM [2]: 93.5%; activity at 0.0025 µM [2]: 93.8%; activity at 0.005 µM [2]: 90.5%; activity at 0.013 µM [2]: 90.4%; activity at 0.025 µM [2]: 78.8%; activity at 0.063 µM [2]: 76.6%; activity at 0.125 µM [2]: 72.5%; activity at 0.313 µM [2]: 39.7%; activity at 0.625 µM [2]: 49.3%; activity at 1.5 µM [2]: 25.2%; activity at 3 µM [2]: 11.5%; activity at 15 µM [2]: 0.44%; activity at 37.5 µM [2]: 0.7%; activity at 75 µM [2]: 0.75%; IC50 [2, 5]: 0.47 µM |
| Cc1ccc(SCCCCn2cnc3ccccc32)cc1 [Compound 7925333] | 7.31 µM | 90.9% | 87.2% | 87.5% | 83.2% | 83.9% | 89.8% | 94.2% | 97.7% | 99.3% | 99.3% | 90.8% | 78.5% | 70% | 25.1% | 9.48% | 0.86 µM | 1.04 µM | 0.017 µM | 1.04 µM | activity at 75 µM [1]: 1.13%; activity at 0.0001 µM [2]: 91.6%; activity at 0.0005 µM [2]: 94.2%; activity at 0.001 µM [2]: 101%; activity at 0.0025 µM [2]: 95.1%; activity at 0.005 µM [2]: 100%; activity at 0.013 µM [2]: 91.2%; activity at 0.025 µM [2]: 93.7%; activity at 0.063 µM [2]: 96.6%; activity at 0.125 µM [2]: 81%; activity at 0.313 µM [2]: 64.2%; activity at 0.625 µM [2]: 65.6%; activity at 1.5 µM [2]: 44%; activity at 3 µM [2]: 28.6%; activity at 15 µM [2]: 10.5%; activity at 37.5 µM [2]: 5.81%; activity at 75 µM [2]: 7.08%; IC50 [2, 5]: 1.04 µM |
| Cc1ccc(OCCn2cnc3ccccc32)cc1 [Compound 5671538] |  | 94.3% | 97.5% | 95.2% | 100% | 98.6% | 95.8% | 97.5% | 95% | 89.3% | 91.3% | 85.9% | 84.9% | 86.7% | 57.1% | 33.8% | 1.24 µM | 5.33 µM | 0.73 µM |  | IC50 [1]: 17.4 µM; activity at 75 µM [1]: 14.5%; activity at 0.0001 µM [2]: 97.2%; activity at 0.0005 µM [2]: 96.5%; activity at 0.001 µM [2]: 95.3%; activity at 0.0025 µM [2]: 106%; activity at 0.005 µM [2]: 90.9%; activity at 0.013 µM [2]: 104%; activity at 0.025 µM [2]: 98%; activity at 0.063 µM [2]: 92.5%; activity at 0.125 µM [2]: 91.2%; activity at 0.313 µM [2]: 90%; activity at 0.625 µM [2]: 88.7%; activity at 1.5 µM [2]: 79.2%; activity at 3 µM [2]: 75%; activity at 15 µM [2]: 18.9%; activity at 37.5 µM [2]: 23.9%; activity at 75 µM [2]: 13.8%; IC50 ([2]; wild-type C. elegans mitochondria, read-out: C. elegans Complex I IC50): 5.33 µM |
| Brc1ccc(Cn2cnc3ccccc32)cc1 [Compound 5542661] | 3.35 µM |  |  |  |  |  |  |  |  |  |  |  |  |  |  |  | 0.53 µM | 0.53 µM | -0.28 µM | 0.53 µM | IC50 [2, 5]: 0.53 µM |
